This is an account of results in patent US12698289B2, “Solid forms of pharmaceutically acceptable salts of (S)-(2-ethyl-5-fluoro-4-hydroxyphenyl)-1H-indazol-3-yl)-4,6-dihydropyrrolo[3,4-d]imidazol-5(1H)-yl)(3-hydroxypyrrolidin-1-yl)methanone as JAK inhibitors” (HENAN MEDINNO PHARMACEUTICAL TECHNOLOGY CO., LTD., priority 2019, dated 2026).

The structures appear in SMILES notation.

The test system of this assay is human T cells. The assay is described as follows: IL-2 induced human T cell proliferation assay (Celltiter Glo). The settings on record: HT, 72 h, read-out: IC50 (nM), human T cell proliferation. (In general: ATP-based viability assays read luminescence as a measure of living cells.)

Description: The purpose of this example is to assay the activity of the compound in the JAK cell activity assay-human T cell proliferation assay.

For the compound `CCc1cc(O)c(F)cc1-c1ccc2c(-c3nc4c([nH]3)CN(C(=O)N3CC[C@H](O)C3)C4)n[nH]c2c1` [Compound of formula (I), (S)-(2-(6-(2-ethyl-5-fluoro-4-hydroxyphenyl)-1H-indazol-3-yl)-4,6-dihydropyrrolo[3,4-d]imidazol-5-(1H)-yl) (3-hydroxy pyrrolidin-1-yl) ketone], the IC50 turned out to be 13 nM.
